According to patent US6808904B2, “Herbicide-tolerant protox genes produced by DNA shuffling” (priority 1994, dated 2004):

Tests used:
[1] = biological target: T1, plant protox mutants (Arabidopsis protox-1) in SASX38 (Arabidopsis thaliana, UniProt P55826, A220T/T56K); test: Bacterial cross-tolerance testing of resistant mutant plasmids in SASX38, Arabidopsis protox-1 mutants; type: cell-based; parameters: key to Cross tolerance, AraC-1Val / Cross tolerance, AraC-2Cys / Cross tolerance, AraC-1Thr / Cross tolerance, AraC-3Thr / Cross tolerance, AraC-2Ile / Cross tolerance, AraC-2Cys + AraC425Ser: + = 10× or more tolerant than WT; ++ = 100× or more tolerant than WT; − = no cross tolerance; conditions: mutant AraC-1Thr vs WT plasmid in SASX38
T1 construct: contains only 17 amino acids of the putative chloroplast transit peptide; expressed in transfected cells; host or cells: E. coli SASX38 (hemG mutant)
Description: (§1) Resistant mutant plasmids, originally identified based on resistance against a single protox inhibitory herbicide, were tested against a spectrum of other protox inhibiting compounds. For this test, the SASX38 strain containing the wild-type plasmid is plated on a range of concentrations of each compound to determine the lethal concentration for each one. Resistant mutant plasmids in SASX38 are plated and scored for the ability to survive on a concentration of each compound at least 10 fold higher than the concentration that is lethal to the SASX38 strain containing the wild-type plasmid.

[2] = biological target: T2, plant protox mutants (Arabidopsis protox-1) in SASX38 (Arabidopsis thaliana, UniProt P55826, A220V/T56K); test: as above; type: cell-based; parameters: key to Cross tolerance, AraC-1Val / Cross tolerance, AraC-2Cys / Cross tolerance, AraC-1Thr / Cross tolerance, AraC-3Thr / Cross tolerance, AraC-2Ile / Cross tolerance, AraC-2Cys + AraC425Ser: + = 10× or more tolerant than WT; ++ = 100× or more tolerant than WT; − = no cross tolerance; conditions: mutant AraC-1Val vs WT plasmid in SASX38
T2 construct: contains only 17 amino acids of the putative chloroplast transit peptide; expressed in transfected cells; host or cells: E. coli SASX38 (hemG mutant)
Description: as §1

[3] = biological target: T3, plant protox mutants (Arabidopsis protox-1) in SASX38 (Arabidopsis thaliana, UniProt P55826, T56K/Y426C); test: as above; type: cell-based; parameters: key to Cross tolerance, AraC-1Val / Cross tolerance, AraC-2Cys / Cross tolerance, AraC-1Thr / Cross tolerance, AraC-3Thr / Cross tolerance, AraC-2Ile / Cross tolerance, AraC-2Cys + AraC425Ser: + = 10× or more tolerant than WT; ++ = 100× or more tolerant than WT; − = no cross tolerance; conditions: mutant AraC-2Cys vs WT plasmid in SASX38
T3 construct: contains only 17 amino acids of the putative chloroplast transit peptide; expressed in transfected cells; host or cells: E. coli SASX38 (hemG mutant)
Description: as §1

[4] = system: plant protox mutants (Arabidopsis protox-1) in SASX38; test: as above; type: cell-based; parameters: key to Cross tolerance, AraC-1Val / Cross tolerance, AraC-2Cys / Cross tolerance, AraC-1Thr / Cross tolerance, AraC-3Thr / Cross tolerance, AraC-2Ile / Cross tolerance, AraC-2Cys + AraC425Ser: + = 10× or more tolerant than WT; ++ = 100× or more tolerant than WT; − = no cross tolerance; conditions: mutant AraC-3Thr vs WT plasmid in SASX38
Description: as §1

[5] = biological target: T4, plant protox mutants (MzC-1Val, maize protox-1) in SASX38 (Arabidopsis thaliana, UniProt P55826, A220V/A252T/A259N/A262P/A292S/A82G/A83V/D204A/D323E/D487E/D93A/DEL80-81/E103P/E263P/E288N/E311D/E351S/E499D/F107Y/F178L/F250I/F483L/G171P/G277A/G306S/G313K/G344N/G441S/H340Y/I100T/I174L/I370V/I421V/I485L/I71T/I87L/INS101VE/K237R/K257S/K359R/K388Q/K457N/K465V/K78R/K92R/L137F/L159P/L310S/L325V/L345I/L360F/L436V/L86V/M122V/N105E/N149E/N241T/N258K/N316V/N355D/N459T/N85D/P266A/P418D/P458S/P84G/Q240E/Q272K/R284A/R293S/S186P/S291T/S305T/S312D/S330A/S352D/S369T/S430A/S439T/S460A/S491A/S492A/S495R/S496G/T141N/T160A/T318E/T379K/T397S/T461V/T488A/T494D/T56K/V126A/V334I/V337I/V95P); test: Bacterial cross-tolerance testing of resistant mutant plasmids in SASX38, maize protox-1 mutant; type: cell-based; conditions: mutant MzC-1Val vs WT plasmid in SASX38
T4 construct: expressed in transfected cells; host or cells: E. coli SASX38 (hemG mutant)
Description: as §1

[6] = biological target: T5, plant protox mutants (Arabidopsis protox-1) in SASX38 (Arabidopsis thaliana, UniProt P55826, N425S/T56K/Y426C); test: Bacterial cross-tolerance testing of resistant mutant plasmids in SASX38, Arabidopsis protox-1 mutants; type: cell-based; parameters: key to Cross tolerance, AraC-1Val / Cross tolerance, AraC-2Cys / Cross tolerance, AraC-1Thr / Cross tolerance, AraC-3Thr / Cross tolerance, AraC-2Ile / Cross tolerance, AraC-2Cys + AraC425Ser: + = 10× or more tolerant than WT; ++ = 100× or more tolerant than WT; − = no cross tolerance; conditions: mutant AraC-2Cys + AraC425Ser
T5 construct: contains only 17 amino acids of the putative chloroplast transit peptide; expressed in transfected cells; host or cells: E. coli SASX38 (hemG mutant)
Description: as §1

[7] = biological target: T6, plant protox mutants (Arabidopsis protox-1) in SASX38 (Arabidopsis thaliana, UniProt P55826, N425S/T56K/Y426L); test: as above; type: cell-based; parameters: key to Cross tolerance, AraC-1Val / Cross tolerance, AraC-2Cys / Cross tolerance, AraC-1Thr / Cross tolerance, AraC-3Thr / Cross tolerance, AraC-2Ile / Cross tolerance, AraC-2Cys + AraC425Ser: + = 10× or more tolerant than WT; ++ = 100× or more tolerant than WT; − = no cross tolerance; conditions: mutant AraC-2Leu + AraC425Ser
T6 construct: contains only 17 amino acids of the putative chloroplast transit peptide; expressed in transfected cells; host or cells: E. coli SASX38 (hemG mutant)
Description: as §1

[8] = biological target: T7, plant protox mutants (Arabidopsis protox-1) in SASX38 (Arabidopsis thaliana, UniProt P55826, N425S/T56K/Y426M); test: as above; type: cell-based; parameters: key to Cross tolerance, AraC-1Val / Cross tolerance, AraC-2Cys / Cross tolerance, AraC-1Thr / Cross tolerance, AraC-3Thr / Cross tolerance, AraC-2Ile / Cross tolerance, AraC-2Cys + AraC425Ser: + = 10× or more tolerant than WT; ++ = 100× or more tolerant than WT; − = no cross tolerance; conditions: mutant AraC-2Met + AraC425Ser
T7 construct: contains only 17 amino acids of the putative chloroplast transit peptide; expressed in transfected cells; host or cells: E. coli SASX38 (hemG mutant)
Description: as §1

[9] = system: Arabidopsis line expressing AraC-2Ile+AraC305Leu; test: Cross tolerance in a seed germination assay, homozygous Arabidopsis line with AraC-2Ile+AraC305Leu; type: in vivo, Arabidopsis thaliana; conditions: AraC-2Ile+AraC305Leu line vs wt
Description: Using the procedure described above, an Arabidopsis protox-1 cDNA containing a TAC to ATG (Tyrosine to Methionine) change at nucleotides 1306-1308 in the protox-1 sequence (SEQ ID NO:1) was fused to the native protox-1 promoter fragment and transformed into Arabidopsis thaliana. […] Seed from the vacuum infiltrated plants was collected and plated on a range (10.0 nM-1.0 uM) of a protox inhibitory aryluracil herbicide of formula XVII. Multiple experiments with wild type Arabidopsis have shown that a 10.0 nM concentration of this compound is sufficient to prevent normal seedling germination. Transgenic seeds expressing the AraC-2Met altered enzyme fused to the native protox-1 promoter produced normal Arabidopsis seedlings at herbicide concentrations up to 500 nM, indicating at least 50-fold higher herbicide tolerance when compared to wild-type Arabidopsis. This promoter/altered protox enzyme fusion therefore functions as an effective selectable marker for plant transformation. Several of the plants that germinated on 100.0 nM of protox-inhibiting herbicide were transplanted to soil, grown 2-3 weeks, and tested in a spray assay with various concentrations of the protox-inhibiting herbicide. When compared to empty vector control transformants, the AraPT1Pro/AraC-2Met transgenics were >10-fold more tolerant to the herbicide spray.
Using the procedure described above, an Arabidopsis protox-1 cDNA containing both a TAC to ATC (tyrosine to isoleucine) change at nucleotides 1306-1308 and a TCA to TTA (serine to leucine) change at nucleotides 945-947 in the protox-1 sequence (SEQ ID NO:1) was fused to the native protox-1 promoter fragment and transformed into Arabidopsis thaliana.

[10] = system: maize protox-1 mutants; test: Mutant screens of maize protox-1 (pMut-3) in the E. coli system; type: cell-based; conditions: arginine 88 to cysteine; screen on this herbicide
Description: The pMut-3 plasmid was transformed into the mutator XL1-Red strain as described above and the mutated DNA was isolated and plated on a herbicide concentration (formula XVII) that was lethal to the unmutagenized pMut-3 maize protox gene. Herbicide tolerant colonies were isolated after two days at 37° C. and analyzed as described above. […] Three of these mutations correspond to amino acid changes previously shown to confer tolerance at the homologous position in the Arabidopsis protox-1 gene. Two of the three are pMzC-1Val and pMzC-1Thr, converting the alanine (GCT) at amino acid 164 (SEQ ID NO:6) to either valine ([…]) or to threonine (ACT). This position corresponds to the pAraC-1 mutations described above (see, Table 1B; sub-sequence 3). The third analogous change, pMzC-3Ser, converts the glycine (GGT) at amino acid 165 to Serine (AGT), corresponding to the AraC-3Ser mutation described above (see, Table 1B; sub-sequence 4).
Additional mutant screens performed as described earlier in this example, except using formulas XXIIIa and XXIIIb instead of XVII, identified three additional amino acid changes that confer tolerant protox enzymes. […]

[11] = biological target: T8, plant protox mutants (Arabidopsis protox-1) in SASX38 (Arabidopsis thaliana, UniProt P55826, A220L/T56K); test: Bacterial cross-tolerance testing of resistant mutant plasmids in SASX38, Arabidopsis protox-1 mutants; type: cell-based; parameters: key to Cross tolerance, AraC-1Val / Cross tolerance, AraC-2Cys / Cross tolerance, AraC-1Thr / Cross tolerance, AraC-3Thr / Cross tolerance, AraC-2Ile / Cross tolerance, AraC-2Cys + AraC425Ser: + = 10× or more tolerant than WT; ++ = 100× or more tolerant than WT; − = no cross tolerance; conditions: mutant AraC-1Leu
T8 construct: contains only 17 amino acids of the putative chloroplast transit peptide; expressed in transfected cells; host or cells: E. coli SASX38 (hemG mutant)
Description: as §1

T3 sequence (P55826 41-537 T56K/Y426C): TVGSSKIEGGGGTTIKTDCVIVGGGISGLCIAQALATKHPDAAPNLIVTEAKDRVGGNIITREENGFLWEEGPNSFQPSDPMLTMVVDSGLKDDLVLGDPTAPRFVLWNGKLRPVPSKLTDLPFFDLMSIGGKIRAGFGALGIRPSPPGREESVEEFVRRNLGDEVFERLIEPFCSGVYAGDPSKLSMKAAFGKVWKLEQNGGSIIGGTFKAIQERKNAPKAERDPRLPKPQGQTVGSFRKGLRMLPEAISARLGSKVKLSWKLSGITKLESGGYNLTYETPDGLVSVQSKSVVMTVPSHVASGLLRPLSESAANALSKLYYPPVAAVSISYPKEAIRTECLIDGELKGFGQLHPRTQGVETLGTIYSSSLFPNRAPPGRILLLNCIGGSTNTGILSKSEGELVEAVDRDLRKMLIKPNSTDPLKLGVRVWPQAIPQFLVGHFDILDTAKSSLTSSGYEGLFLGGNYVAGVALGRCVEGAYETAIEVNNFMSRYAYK
T2 sequence (P55826 41-537 T56K/A220V): as the sequence (P55826 41-537 T56K/Y426C) above, with A180V, C386Y counted along it
T4 sequence (P55826 other isoform, or with tags, fused parts or gaps with the stated changes): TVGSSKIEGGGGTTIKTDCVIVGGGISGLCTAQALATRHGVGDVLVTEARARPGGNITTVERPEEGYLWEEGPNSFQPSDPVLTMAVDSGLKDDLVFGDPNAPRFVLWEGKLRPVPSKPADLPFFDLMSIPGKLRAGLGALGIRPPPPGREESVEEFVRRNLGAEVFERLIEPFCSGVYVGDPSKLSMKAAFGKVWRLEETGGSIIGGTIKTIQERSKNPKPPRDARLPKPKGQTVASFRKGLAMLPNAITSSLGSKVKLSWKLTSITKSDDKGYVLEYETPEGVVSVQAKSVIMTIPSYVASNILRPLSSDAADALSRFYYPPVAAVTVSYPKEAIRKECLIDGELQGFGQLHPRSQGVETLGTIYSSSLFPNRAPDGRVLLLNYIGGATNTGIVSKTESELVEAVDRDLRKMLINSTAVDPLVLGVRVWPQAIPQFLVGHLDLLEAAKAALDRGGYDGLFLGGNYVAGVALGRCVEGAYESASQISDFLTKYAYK
T1 sequence (P55826 41-537 T56K/A220T): as the sequence (P55826 41-537 T56K/Y426C) above, with A180T, C386Y counted along it
T7 sequence (P55826 41-537 T56K/N425S/Y426M): as the sequence (P55826 41-537 T56K/Y426C) above, with N385S, C386M counted along it
T5 sequence (P55826 41-537 T56K/N425S/Y426C): as the sequence (P55826 41-537 T56K/Y426C) above, with N385S counted along it
T8 sequence (P55826 41-537 T56K/A220L): as the sequence (P55826 41-537 T56K/Y426C) above, with A180L, C386Y counted along it
T6 sequence (P55826 41-537 T56K/N425S/Y426L): as the sequence (P55826 41-537 T56K/Y426C) above, with N385S, C386L counted along it

Compound | Cross tolerance, AraC-1Thr [1] | Cross tolerance, AraC-1Val [2] | Cross tolerance, AraC-2Cys [3] | Cross tolerance, AraC-3Thr [4] | Cross tolerance, MzC-1Val [5] | Cross tolerance, AraC-2Cys + AraC425Ser [6] | Cross tolerance, AraC-2Leu + AraC425Ser [7] | Cross tolerance, AraC-2Met + AraC425Ser [8] | Tolerance [9] | tolerance of maize enzyme Mz88Cys [10] | Cross tolerance, AraC-1Leu [11]
CCOC(=O)COc1cc(-c2nn(C)c(OC(F)F)c2Cl)c(F)cc1Cl [XII] | ++ (++ = 100× or more tolerant than WT) | + (+ = 10× or more tolerant than WT) | − | ++ (++ = 100× or more tolerant than WT) | ++ (++ = 100× or more tolerant than WT) |  |  |  |  |  | 
C#CCN1C(=O)COc2cc(F)c(N3C(=O)C4=C(CCCC4)C3=O)cc21 [XVI] | − | − | − | − | + (+ = 10× or more tolerant than WT) | + (+ = 10× or more tolerant than WT) | ++ (++ = 100× or more tolerant than WT) | ++ (++ = 100× or more tolerant than WT) | +++ (+++ ≧ 1000× more tolerant than wt) |  | 
COC(=O)c1cc(Oc2ccc(Cl)cc2Cl)ccc1[N+](=O)[O-] [IVb] |  |  |  |  |  |  |  |  | + (+ ≧ 10× more tolerant than wt) |  | 
Cc1nn(-c2cc(NS(C)(=O)=O)c(Cl)cc2Cl)c(=O)n1C(F)F [X] |  |  |  |  |  |  |  |  | + (+ ≧ 10× more tolerant than wt) |  | 
Cn1nc(-c2c(F)cc(Cl)c(=O)n2C)c(Cl)c1OC(F)F [Formula XXIIIb] |  |  |  |  |  |  |  |  |  | highly tolerant | 
C#CC(C)Oc1cc(N2C(=O)C3=C(CCCC3)C2=O)c(F)cc1Cl (stereo not shown) [XV] | + (+ = 10× or more tolerant than WT) | + (+ = 10× or more tolerant than WT) | + (+ = 10× or more tolerant than WT) | + (+ = 10× or more tolerant than WT) | + (+ = 10× or more tolerant than WT) | ++ (++ = 100× or more tolerant than WT) |  | ++ (++ = 100× or more tolerant than WT) |  |  | ++ (++ = 100× or more tolerant than WT)
